According to patent publication US20230234942A1, “COMPOUNDS FOR TREATING HUNTINGTON'S DISEASE” (PTC Therapeutics, Inc., priority 2020, published 2023):

System: Endogenous Huntingtin Protein
Assay: Endogenous Huntingtin Protein Assay (ELISA-based MSD electrochemiluminescence)
Format: cell-based
Details: Table 2; MSD plates coated with MW1 (expanded polyglutamine) or MAB2166 capture antibody; "inactive" = result above the detection limit of the assay
How it was run: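 MSD electrochemiluminescence sandwich ELISA: capture with MW1 (expanded polyQ) or MAB2166 at 1 µg/mL, samples incubated overnight at 4 °C. Detection by rabbit mAb #56565 then SULFO-TAG anti-rabbit antibody, each 0.25 µg/mL for 1 h at room temperature, read in buffer T on SI 6000 imager.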

`COc1cc(-c2ccc(-c3cnc(N4C[C@@H](C)N[C@@H](C5CC5)C4)nn3)c(O)c2)ncn1` [Cpd 235, 2-{3-[(3S,5R)-3-cyclopropyl-5-methylpiperazin-1-yl]-1,2,4-triazin-6-yl}-5-(6-methoxypyrimidin-4-yl)phenol] and `Cc1nc2c(C)cc(-c3ccc(-c4cnc(N5CCN[C@@H](C(C)C)C5)nn4)c(O)c3)nn2n1` [Cpd 92, 5-(2,8-dimethyl[1,2,4]triazolo[1,5-b]pyridazin-6-yl)-2-{3-[(3S)-3-(propan-2-yl)piperazin-1-yl]-1,2,4-triazin-6-yl}phenol] are within 1.5-fold of each other in IC50: 8.1 nM for the first, 7.9 nM for the second.

First: [2H]C([2H])([2H])n1cc(-c2ccc(-c3cnc(N4C[C@@H](C)N[C@@H](C)C4)nn3)c(O)c2)cn1 [Cpd 49, 2-{3-[(3R,5S)-3,5-dimethylpiperazin-1-yl]-1,2,4-triazin-6-yl}-5-[1-(^2H3)methyl-1H-pyrazol-4-yl]phenol]
Second: Oc1cc(-c2cn[nH]c2)ccc1-c1cnc(N2CCNC3(CCCC3)C2)nn1 [Cpd 43, 2-[3-(6,9-diazaspiro[4.5]decan-9-yl)-1,2,4-triazin-6-yl]-5-(1H-pyrazol-4-yl)phenol]
The IC50 of the first is 2.2-fold higher: 256 nM for the first, 116 nM for the second.

Going from `Oc1cc(-c2cn[nH]c2)ccc1-c1cnc(N2CCNC(CC(F)(F)F)C2)nn1` (stereo not drawn) [Cpd 146, 5-(1H-pyrazol-4-yl)-2-{3-[3-(2,2,2-trifluoroethyl)piperazin-1-yl]-1,2,4-triazin-6-yl}phenol] to `Cc1cc(-c2ccc(-c3cnc(N4CCNC(C(C)C)C4)nn3)c(O)c2)ncn1` (racemic) [Cpd 149, 5-(6-methylpyrimidin-4-yl)-2-{3-[(3RS)-3-(propan-2-yl)piperazin-1-yl]-1,2,4-triazin-6-yl}phenol], the IC50 falls from 539 nM to 90.7 nM (5.9-fold).

Going from `CC[C@H]1CN(c2ncc(-c3ccc(-c4cc(OC)ncn4)cc3O)nn2)C[C@@H](C)N1` [Cpd 234, 2-{3-[(3S,5R)-3-ethyl-5-methylpiperazin-1-yl]-1,2,4-triazin-6-yl}-5-(6-methoxypyrimidin-4-yl)phenol] to `CC(C)[C@H]1CN(c2ncc(-c3ccc(-c4nccs4)cc3O)nn2)CCN1` [Cpd 185, 2-{3-[(3S)-3-(propan-2-yl)piperazin-1-yl]-1,2,4-triazin-6-yl}-5-(1,3-thiazol-2-yl)phenol], the IC50 rises from 8.7 nM to 158 nM (18-fold).

First: Cc1ccc2c(ccn2-c2ccc(-c3cnc(N4CCN[C@@H](C(C)C)C4)nn3)c(O)c2)n1 [Cpd 159, 5-(5-methyl-1H-pyrrolo[3,2-b]pyridin-1-yl)-2-{3-[(3S)-3-(propan-2-yl)piperazin-1-yl]-1,2,4-triazin-6-yl}phenol]
Second: COc1cc(-c2cc(O)c(-c3cnc(N4CCN[C@@H](C(C)C)C4)nn3)c(F)c2)ncn1 [Cpd 28, 3-fluoro-5-(6-methoxypyrimidin-4-yl)-2-{3-[(3S)-3-(propan-2-yl)piperazin-1-yl]-1,2,4-triazin-6-yl}phenol]
The IC50 of the first is 2.4-fold higher: 62.2 nM for the first, 26.2 nM for the second. The second is the more potent here.

Going from `Cc1cn2nc(-c3ccc(-c4cnc(N5C[C@@H](C)N[C@@H](C)C5)nn4)c(O)c3)cc(C)c2n1` [Cpd 69, 5-(2,8-dimethylimidazo[1,2-b]pyridazin-6-yl)-2-{3-[(3R,5S)-3,5-dimethylpiperazin-1-yl]-1,2,4-triazin-6-yl}phenol] to `CC(C)[C@H]1CN(c2ncc(-c3ccc(-n4ccnc4)cc3O)nn2)CCN1` [Cpd 142, 5-(1H-imidazol-1-yl)-2-{3-[(3S)-3-(propan-2-yl)piperazin-1-yl]-1,2,4-triazin-6-yl}phenol], the IC50 rises from 3.6 nM to 60.3 nM (17-fold).

Compared with `Cn1cc2cc(-c3ccc(-c4cnc(N5CCN6CCC[C@@H]6C5)nn4)c(O)c3)cc(F)c2n1` [Cpd 105, 5-(7-fluoro-2-methyl-2H-indazol-5-yl)-2-{3-[(8aR)-hexahydropyrrolo[1,2-a]pyrazin-2(1H)-yl]-1,2,4-triazin-6-yl}phenol], `Oc1cc(-c2cn[nH]c2)ccc1-c1cnc(N2CCN3CCCC3C2)nn1` (stereo not drawn) [Cpd 284, 2-[3-(hexahydropyrrolo[1,2-a]pyrazin-2(1H)-yl)-1,2,4-triazin-6-yl]-5-(1H-pyrazol-4-yl)phenol] is 6-fold higher in IC50: 15.3 nM for the first, 91.4 nM for the second.

Going from `CCN1CCN(c2ncc(-c3ccc(-c4cc(F)c5nc(C)cn5c4)cc3O)nn2)C[C@H]1C` [Cpd 89, 2-{3-[(3R)-4-ethyl-3-methylpiperazin-1-yl]-1,2,4-triazin-6-yl}-5-(8-fluoro-2-methylimidazo[1,2-a]pyridin-6-yl)phenol] to `Cn1cc(-c2ccc(-c3cnc(N4CCN[C@@H](C(C)(C)C)C4)nn3)c(O)c2)cn1` [Cpd 21, 2-{3-[(3S)-3-tert-butylpiperazin-1-yl]-1,2,4-triazin-6-yl]-5-(1-methyl-1H-pyrazol-4-yl)phenol], the IC50 rises from 6.7 nM to 20.8 nM (3.1-fold). The first is the more potent here.

Compared with `CCCC1CN(c2ncc(-c3ccc(-c4cn[nH]c4)cc3O)nn2)CCN1` (stereo not drawn) [Cpd 31, 2-[3-(3-propylpiperazin-1-yl)-1,2,4-triazin-6-yl]-5-(1H-pyrazol-4-yl)phenol], `CC[C@@H]1CN(c2ncc(-c3ccc(-c4cn[nH]c4F)cc3O)nn2)C[C@H](C)N1` [Cpd 218, 2-{3-[(3R,5S)-3-ethyl-5-methylpiperazin-1-yl]-1,2,4-triazin-6-yl}-5-(5-fluoro-1H-pyrazol-4-yl)phenol] is 2.2-fold higher in IC50: 34.3 nM for the first, 73.8 nM for the second.

First: CC(C)[C@H]1CN(c2ncc(-c3ccc(-c4nc(Cl)cs4)cc3O)nn2)CCN1 [Cpd 188, 5-(4-chloro-1,3-thiazol-2-yl)-2-{3-[(3S)-3-(propan-2-yl)piperazin-1-yl]-1,2,4-triazin-6-yl}phenol]
Second: Cn1cc2cc(-c3ccc(-c4cnc(N5CCNC(CO)C5)nn4)c(O)c3)cc(F)c2n1 (stereo not drawn) [Cpd 65, 5-(7-fluoro-2-methyl-2H-indazol-5-yl)-2-{3-[3-(hydroxymethyl)piperazin-1-yl]-1,2,4-triazin-6-yl}phenol]
The IC50 of the first is 66-fold higher: 105 nM for the first, 1.6 nM for the second.

First: Cc1cn2cc(-c3ccc(-c4cnc(N5CCN[C@@H](C(C)C)C5)nn4)c(O)c3)ncc2n1 [Cpd 141, 5-(2-methylimidazo[1,2-a]pyrazin-6-yl)-2-{3-[(3S)-3-(propan-2-yl)piperazin-1-yl]-1,2,4-triazin-6-yl}phenol]
Second: CC1(C2CN(c3ncc(-c4ccc(-c5cn[nH]c5)cc4O)nn3)CCN2)CC1 (stereo not drawn) [Cpd 134, 2-{3-[3-(1-methylcyclopropyl)piperazin-1-yl]-1,2,4-triazin-6-yl}-5-(1H-pyrazol-4-yl)phenol]
The IC50 of the first is 6.5-fold lower: 2.3 nM for the first, 14.9 nM for the second. The first is the more potent here.

Going from `CC(C)[C@H]1CN(c2ncc(-c3ccc(-c4cc(F)c5nn(C)cc5c4)cc3O)nn2)CCN1` [Cpd 81, 5-(7-fluoro-2-methyl-2H-indazol-5-yl)-2-{3-[(3S)-3-(propan-2-yl)piperazin-1-yl]-1,2,4-triazin-6-yl}phenol] to `Cc1nc2c(C3CC3)nc(-c3ccc(-c4cnc(N5C[C@@H](C)N[C@@H](C)C5)nn4)c(O)c3)cn2n1` [Cpd 109, 5-(8-cyclopropyl-2-methyl[1,2,4]triazolo[1,5-a]pyrazin-6-yl)-2-{3-[(3R,5S)-3,5-dimethylpiperazin-1-yl]-1,2,4-triazin-6-yl}phenol], the IC50 rises from 5.4 nM to 22.1 nM (4.1-fold). The first is the more potent here.

Going from “2-{3-[(3S,5R)-3-tert-butyl-5-methylpiperazin-1-yl]-1,2,4-triazin-6-yl}-5-(1,2,4-thiadiazol-3-yl)phenol [Cpd 254]” to `CC(C)[C@H]1CN(c2ncc(-c3ccc(-c4cnsc4)cc3O)nn2)CCN1` [Cpd 250, 2-{3-[(3S)-3-(propan-2-yl)piperazin-1-yl]-1,2,4-triazin-6-yl]-5-(1,2-thiazol-4-yl)phenol], the IC50 falls from 556 nM to 140 nM (4-fold). The second is the more potent here.

Going from `Cc1nc2n(n1)CCN(c1ccc(-c3cnc(N4CCN[C@@H](C(C)C)C4)nn3)c(O)c1)C2` [Cpd 274, 5-(2-methyl-5,6-dihydro[1,2,4]triazolo[1,5-a]pyrazin-7(8H)-yl)-2-{3-[(3S)-3-(propan-2-yl)piperazin-1-yl]-1,2,4-triazin-6-yl}phenol] to `CC1CN(c2ncc(-c3ccc(-c4cn[nH]c4)cc3O)nn2)CCN1` (stereo not drawn) [Cpd 42, 2-[3-(3-methylpiperazin-1-yl)-1,2,4-triazin-6-yl]-5-(1H-pyrazol-4-yl)phenol], the IC50 falls from 291 nM to 111 nM (2.6-fold).

Compared with `CC(C)[C@@H]1CN(c2ncc(-c3ccc(-c4cn[nH]c4F)cc3O)nn2)C[C@H](C)N1` [Cpd 217, 5-(5-fluoro-1H-pyrazol-4-yl)-2-{3-[(3S,5R)-3-methyl-5-(propan-2-yl)piperazin-1-yl]-1,2,4-triazin-6-yl]phenol], `CC(C)C1CN(c2ncc(-c3ccc(-c4cn[nH]c4)cc3O)nn2)CCN1` (stereo not drawn) [Cpd 22, 2-{3-[3-(propan-2-yl)piperazin-1-yl]-1,2,4-triazin-6-yl}-5-(1H-pyrazol-4-yl)phenol] is 3-fold lower in IC50: 67.9 nM for the first, 22.3 nM for the second. The second is the more potent here.

`Oc1cc(-n2nccn2)ccc1-c1cnc(N2CCN[C@@H](C3CC3)C2)nn1` [Cpd 11, 2-{3-[(3S)-3-cyclopropylpiperazin-1-yl]-1,2,4-triazin-6-yl}-5-(2H-1,2,3-triazol-2-yl)phenol] and `Oc1cc(-c2cn[nH]c2)ccc1-c1cnc(N2CCNC(C3(O)CC3)C2)nn1` (stereo not drawn) [Cpd 6, 2-{3-[3-(1-hydroxycyclopropyl)piperazin-1-yl]-1,2,4-triazin-6-yl}-5-(1H-pyrazol-4-yl)phenol] are within 1.5-fold of each other in IC50: 9.6 nM for the first, 6.7 nM for the second.

First: CC(C)[C@H]1CN(c2ncc(-c3ccc(-c4cnccn4)cc3O)nn2)CCN1 [Cpd 144, 2-{3-[(3S)-3-(propan-2-yl)piperazin-1-yl]-1,2,4-triazin-6-yl}-5-(pyrazin-2-yl)phenol]
Second: CC(C)[C@H]1CN(c2ncc(-c3ccc(-n4ncc5cncnc54)cc3O)nn2)CCN1 [Cpd 162, 2-{3-[(3S)-3-(propan-2-yl)piperazin-1-yl]-1,2,4-triazin-6-yl}-5-(1H-pyrazolo[3,4-d]pyrimidin-1-yl)phenol]
The IC50 of the first is 18-fold higher: 466 nM for the first, 25.4 nM for the second. The second is the more potent here.

With `CC(C)C1CN(c2ncc(-c3ccc(-c4cn[nH]c4)cc3O)nn2)CCN1C` (stereo not drawn) [Cpd 34, 2-{3-[4-methyl-3-(propan-2-yl)piperazin-1-yl]-1,2,4-triazin-6-yl}-5-(1H-pyrazol-4-yl)phenol] the IC50 was 42 nM.

Same assay, conditions: Table 3; selected compounds from WO/2019/191229 A1, same MSD assay

`Oc1cc(-c2cn[nH]c2)ccc1-c1cnc(N2CCNCC2)nn1` [WO/2019/191229 A1 Cpd 328, reference compound] showed an IC50 of 106 nM.
